Tests used:
[1] = tested on: Glomerella lagenarium (Colletotrichum lagenarium); test: Glomerella lagenarium (Colletotrichum lagenarium) / liquid culture (anthracnose); assay type: cell-based; conditions: Colletotrichum orbiculare; 200 ppm in the formulation; PDB broth, 24° C., photometric, 3 to 4 days after application; vs untreated control; read-out: disease control (inhibition of growth)
Experimental: Glomerella lagenarium (Colletotrichum lagenarium)/Liquid Culture (Anthracnose) Conidia of the fungus from cryogenic storage are directly mixed into nutrient broth (PDB potato dextrose broth). After placing a (DMSO) solution of test compound into a microtiter plate (96-well format), the nutrient broth containing the fungal spores is added. The test plates are incubated at 24° C. and the inhibition of growth is measured photometrically 3 to 4 days after application.

[2] = tested on: Puccinia recondita f. so. tritici; test: Puccinia recondita f. sp. tritici / wheat / leaf disc preventative (brown rust); assay type: in vivo; conditions: foliar, 200 ppm in the formulation, wheat leaf segments cv. Kanzler, 7-9 days after application, vs untreated control, read-out: disease control
Experimental: Puccinia recondita f. so. tritici/Wheat/Leaf Disc Preventative (Brown Rust)
Wheat leaf segments cv. Kanzler are placed on agar in multiwell plates (24-well format) and sprayed with the formulated test compound diluted in water. The leaf disks are inoculated with a spore suspension of the fungus 1 day after application. The inoculated leaf segments are incubated at 19° C. and 75% rh under a light regime of 12 h light/12 h darkness in a climate cabinet and the activity of a compound is assessed as percent disease control compared to untreated when an appropriate level of disease damage appears in untreated check leaf segments (7-9 days after application).

[3] = tested on: Mycosphaerella graminicola (Septoria tritici); test: Mycosphaerella graminicola (Septoria tritici) / liquid culture (Septoria blotch); assay type: cell-based; conditions: Zymoseptoria tritici; 200 ppm in the formulation; PDB broth, 24° C., photometric, 4 to 5 days after application; vs untreated control; read-out: disease control (inhibition of growth)
Experimental: Mycosphaerella graminicola (Septoria tritici)/Liquid Culture (Septoria Blotch) Conidia of the fungus from cryogenic storage are directly mixed into nutrient broth (PDB potato dextrose broth). After placing a (DMSO) solution of test compound into a microtiter plate (96-well format), the nutrient broth containing the fungal spores is added. The test plates are incubated at 24° C. and the inhibition of growth is determined photometrically 4 to 5 days after application.

[4] = tested on: Phaeosphaeria nodorum (Setoria nodorum); test: Phaeosphaeria nodorum (Septoria nodorum) / wheat / leaf disc preventative (glume blotch); assay type: in vivo; conditions: Parastagonospora nodorum, foliar, 200 ppm in the formulation, wheat leaf segments cv. Kanzler, 5-7 days after application, vs untreated control, read-out: disease control
Experimental: Phaeosphaeria nodorum (Setoria nodorum)/Wheat/Leaf Disc Preventative (Glume Blotch) Wheat leaf segments cv. Kanzler are placed on agar in a multiwell plate (24-well format) and sprayed with the formulated test compound diluted in water. The leaf disks are inoculated with a spore suspension of the fungus 2 days after application. The inoculated test leaf disks are incubated at 20° C. and 75% rh under a light regime of 12 h light/12 h darkness in a climate cabinet and the activity of a compound is assessed as percent disease control compared to untreated when an appropriate level of disease damage appears in untreated check leaf disks (5-7 days after application).

[5] = tested on: Mycosphaerella arachidis (Cercospora arachidicola); test: Mycosphaerella arachidis (Cercospora arachidicola) / liquid culture (early leaf spot); assay type: cell-based; conditions: 200 ppm in the formulation, PDB broth, 24° C., photometric, 4-5 days after application, vs untreated control, read-out: disease control (inhibition of growth)
Experimental: Mycosphaerella arachidis (Cercospora arachidicola)/Liquid Culture (Early Leaf Soot) Conidia of the fungus from cryogenic storage are directly mixed into nutrient broth (PDB potato dextrose broth). After placing a (DMSO) solution of test compound into a microtiter plate (96-well format), the nutrient broth containing the fungal spores is added. The test plates are incubated at 24° C. and the inhibition of growth is determined photometrically 4-5 days after application.

[6] = tested on: Magnaporthe grisea (Pyricularia oryzae); test: whole plant or invertebrate; assay type: in vivo; conditions: foliar, read-out: disease control
[7] = tested on: Botryotinia fuckeliana (Botrytis cinerea); test: Botryotinia fuckeliana (Botrytis cinerea) liquid culture (gray mould); assay type: cell-based; conditions: 200 ppm in the formulation, Vogels broth, 24° C., photometric, 3-4 days after application, vs untreated control, read-out: disease control (inhibition of growth)
Experimental: Botryotinia fuckeliana (Botrytis cinerea) Liquid Culture (Gray Mould) Conidia of the fungus from cryogenic storage are directly mixed into nutrient broth (Vogels broth). After placing a (DMSO) solution of test compound into a microtiter plate (96-well format), the nutrient broth containing the fungal spores is added. The test plates are incubated at 24° C. and the inhibition of growth is determined photometrically 3-4 days after application.

[8] = tested on: Monographella nivalis (Microdochium nivale); test: Monographella nivalis (Microdochium nivale) / liquid culture (foot rot cereals); assay type: cell-based; conditions: 200 ppm in the formulation, PDB broth, 24° C., photometric, 4-5 days after application, vs untreated control, read-out: disease control (inhibition of growth)
Experimental: Monographella nivalis (Microdochium nivale)/Liquid Culture (Foot Rot Cereals) Conidia of the fungus from cryogenic storage are directly mixed into nutrient broth (PDB potato dextrose broth). After placing a (DMSO) solution of test compound into a microtiter plate (96-well format), the nutrient broth containing the fungal spores is added. The test plates are incubated at 24° C. and the inhibition of growth is determined photometrically 4-5 days after application.

Pythium ultimum = Pythium ultimum / liquid culture (seedling damping off); assay type: cell-based; conditions: Globisporangium ultimum; 200 ppm in the formulation; PDB broth, 24° C., photometric, 2-3 days after application; vs untreated control; read-out: disease control (inhibition of growth)
Experimental: Pythium ultimum/Liquid Culture (Seedling Damping Off) Mycelia fragments and oospores of a newly grown liquid culture of the fungus are directly mixed into nutrient broth (PDB potato dextrose broth). After placing a (DMSO) solution of test compound into a microtiter plate (96-well format), the nutrient broth containing the fungal mycelia/spore mixture is added. The test plates are incubated at 24° C. and the inhibition of growth is determined photometrically 2-3 days after application.

COc1ccnc(C(=O)N[C@@H](C)C(=O)OC(C)C(C)c2sc3ccccc3c2C)c1O (stereo partly drawn) [I.as.001, [1-methyl-2-(3-methylbenzothiophen-2-yl)propyl] (2S)-2-[(3-hydroxy-4-methoxy-pyridine-2-carbonyl)amino]propanoate]
≥ 80%: inhibition at 200 ppm [1] | pest or weed control at 200 ppm [2] | inhibition at 200 ppm [3] | pest or weed control at 200 ppm [4] | inhibition at 200 ppm [5] | pest or weed control at 200 ppm [6] | inhibition at 200 ppm [7] | inhibition at 200 ppm [8]

COc1ccnc(C(=O)N[C@@H](C)C(=O)OC(C)C(C)n2ccc3cc(Cl)ccc32)c1O (stereo partly drawn) [I.y.001, [2-(5-chloroindol-1-yl)-1-methyl-propyl] (2S)-2-[(3-hydroxy-4-methoxy-pyridine-2-carbonyl)amino]propanoate]
≥ 80%: inhibition at 200 ppm [1] | pest or weed control at 200 ppm [2] | inhibition at 200 ppm [3] | inhibition at 200 ppm [5] | inhibition at 200 ppm (Pythium ultimum) | inhibition at 200 ppm [7] | inhibition at 200 ppm [8]

Reference: patent US11629138B2, “Microbiocidal picolinamide derivatives” (Syngenta Participations AG, priority 2017, dated 2023)
